Laboratory results as given in patent US20150105252A1, “SUBSTITUTED PYRAZOLES AS HERBICIDES” (E I DU PONT DE NEMOURS AND COMPANY, priority 2013, published 2015).

Columns and labels:
common ragweed = assay: Test F preemergence; assay type: in vivo, Ambrosia elation
In short: (§1)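 Plant response is scored by eye relative to controls on a 0 to 100 scale, where 100 means complete control. Preemergence applications were made to seeded silt loam; postemergence ones to seedlings 2 to 18 cm high. Greenhouse holding time was 14 to 21 days.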

blackgrass = assay: Test D postemergence; assay type: in vivo, Alopecurus myosuroides; conditions: scale 0 to 100
Description: (§2) Seeds of plant species selected from bluegrass (annual bluegrass, Poa annua), blackgrass (Alopecurus myosuroides), canarygrass (littleseed canarygrass, Phalaris minor), chickweed (common chickweed, Stellaria media), galium (catchweed bedstraw, Galium aparine), bromegrass, downy (downy bromegrass, Bromus tectorum), field poppy (Papaver rhoeas), field violet (Viola arvensis), foxtail, green (green foxtail, Setaria viridis), deadnettle (henbit deadnettle, Lamium amplexicaule), ryegrass, Italian (Italian ryegrass, Lolium multiflorum), kochia (Kochia scoparia), lambsquarters (Chenopodium album), oilseed rape (Brassica napus), pigweed (redroot pigweed, Amaranthus retroflexus), chamomile (scentless chamomile, Matricaria inodora), speedwell (bird's-eye speedwell, Veronica persica), barley, spring (spring barley, Hordeum vulgare), wheat, spring (spring wheat, Triticum aestivum), buckwheat, wild (wild buckwheat, Polygonum convolvulus), mustard, wild (wild mustard, Sinapis arvensis), oat, wild (wild oat, Avena fatua), radish, wild (wild radish, Raphanus raphanistrum), windgrass (Apera spica-venti), Russian thistle (Salsola kali), barley, winter (winter barley, Hordeum vulgare), and wheat, winter (winter wheat, Triticum aestivum) were planted into a silt loam soil and treated preemergence with test chemicals formulated in a non-phytotoxic solvent mixture which included a surfactant.
(§3) At the same time, these species were planted in pots containing Redi-Earth® planting medium (Scotts Company, 14111 Scottslawn Road, Marysville, Ohio 43041) comprising spaghnum peat moss, vermiculite, wetting agent and starter nutrients and treated with postemergence applications of the test chemicals formulated in the same manner. Plants ranged in height from 2 to 18 cm (1- to 4-leaf stage). Treated plants and controls were maintained in a controlled growth environment for 14 to 21 days after which time all species were compared to controls and visually evaluated. Plant response ratings, summarized in Table D, are based on a scale of 0 to 100 where 0 is no effect and 100 is complete control. A dash (-) response means no test result.

field bindweed = assay: Test F preemergence; assay type: in vivo, Convolvulus arvensis
In short: as §1

johnsongrass = assay: Test F preemergence; assay type: in vivo, Sorghum halepense
In short: as §1

field violet = assay: Test D preemergence; assay type: in vivo, Viola arvensis; conditions: scale 0 to 100
In short: (§4)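 Visual injury scored 0–100 (0 none, 100 complete control) against controls 14–21 days after treatment in a controlled growth environment. Chemicals were formulated in a non-phytotoxic solvent mixture containing surfactant, applied to silt loam soil preemergence or to 1- to 4-leaf plants postemergence.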

chamomile = assay: Test D postemergence; assay type: in vivo, Matricaria inodora; conditions: scale 0 to 100
In short: as §4

large crabgrass = assay: Test F preemergence; assay type: in vivo, Digitaria sanguinalis
In short: as §1

canarygrass = assay: Test D postemergence; assay type: in vivo, Phalaris minor; conditions: scale 0 to 100
Description: as §2, §3

speedwell = assay: Test D preemergence; assay type: in vivo, Veronica persica; conditions: scale 0 to 100
In short: as §4

goosegrass = assay: Test F preemergence; assay type: in vivo, Eleusine indica
In short: as §1

kochia = assay: Test D postemergence; assay type: in vivo, Kochia scoparia; conditions: scale 0 to 100
Description: as §2, §3

barley, spring = assay: Test D postemergence; assay type: in vivo, Hordeum vulgare; conditions: scale 0 to 100
In short: as §4

barley, winter = assay: Test D postemergence; assay type: in vivo, Hordeum vulgare; conditions: scale 0 to 100
In short: as §4

arrowleaf sida = assay: Test F preemergence; assay type: in vivo, Sida rhombifolia
In short: as §1

[1] = Preemergence, 31 g ai/ha, scale 0 to 100
[2] = Preemergence, 62 g ai/ha, scale 0 to 100
[3] = Preemergence, 125 g ai/ha, scale 0 to 100
[4] = preemergence, 8 g ai/ha, scale 0 to 100, 100 is complete control
[5] = preemergence, 16 g ai/ha, scale 0 to 100, 100 is complete control

Structure (SMILES): CCc1cc(C(=O)NCC(F)(F)F)nn1Cc1ccnc(C(F)(F)F)c1 [Compound 78, 5-ethyl-N-(2,2,2-trifluoroethyl)-1-[[(2-trifluoromethyl)-4-pyridinyl]methyl]-1H-pyrazole-3-carboxamide]
- Plant response rating, Common Ragweed (common ragweed; [1]): 90
- Plant response rating, Common Ragweed (common ragweed; [2]): 98
- Plant response rating, Common Ragweed (common ragweed; [3]): 100
- Plant response rating, Common Ragweed (common ragweed; [4]): 0
- Plant response rating, Common Ragweed (common ragweed; [5]): 30
- Blackgrass plant response rating (blackgrass; Postemergence, 31 g ai/ha): 5
- Blackgrass plant response rating (blackgrass; Postemergence, 125 g ai/ha): 30
- Blackgrass plant response rating (blackgrass; Postemergence, 250 g ai/ha): 65
- Blackgrass plant response rating (blackgrass; postemergence, 62 g ai/ha): 10
- Plant response rating, Field Bindweed (field bindweed; [1]): 100
- Plant response rating, Field Bindweed (field bindweed; [2]): 90
- Plant response rating, Field Bindweed (field bindweed; [3]): 95
- Plant response rating, Field Bindweed (field bindweed; [4]): 0
- Plant response rating, Field Bindweed (field bindweed; [5]): 0
- Plant response rating, Johnsongrass (johnsongrass; [1]): 30
- Plant response rating, Johnsongrass (johnsongrass; [2]): 95
- Plant response rating, Johnsongrass (johnsongrass; [3]): 100
- Plant response rating, Johnsongrass (johnsongrass; [4]): 20
- Plant response rating, Johnsongrass (johnsongrass; [5]): 20
- Plant response rating, Field Violet (field violet; 31 g ai/ha): 100
- Plant response rating, Field Violet (field violet; 62 g ai/ha): 100
- Plant response rating, Field Violet (field violet; 125 g ai/ha): 100
- Plant response rating, Field Violet (field violet; 250 g ai/ha): 100
- Chamomile plant response rating (chamomile; Postemergence, 31 g ai/ha): 30
- Chamomile plant response rating (chamomile; Postemergence, 125 g ai/ha): 65
- Chamomile plant response rating (chamomile; Postemergence, 250 g ai/ha): 75
- Chamomile plant response rating (chamomile; postemergence, 62 g ai/ha): 50
- Plant response rating, Large Crabgrass (large crabgrass; [1]): 100
- Plant response rating, Large Crabgrass (large crabgrass; [2]): 100
- Plant response rating, Large Crabgrass (large crabgrass; [3]): 100
- Plant response rating, Large Crabgrass (large crabgrass; [4]): 75
- Plant response rating, Large Crabgrass (large crabgrass; [5]): 98
- Canarygrass plant response rating (canarygrass; Postemergence, 31 g ai/ha): 5
- Canarygrass plant response rating (canarygrass; Postemergence, 125 g ai/ha): 15
- Canarygrass plant response rating (canarygrass; Postemergence, 250 g ai/ha): 25
- Canarygrass plant response rating (canarygrass; postemergence, 62 g ai/ha): 10
- Plant response rating, Speedwell (speedwell; 31 g ai/ha): 100
- Plant response rating, Speedwell (speedwell; 62 g ai/ha): 100
- Plant response rating, Speedwell (speedwell; 125 g ai/ha): 100
- Plant response rating, Speedwell (speedwell; 250 g ai/ha): 100
- Plant response rating, Goosegrass (goosegrass; [1]): 90
- Plant response rating, Goosegrass (goosegrass; [2]): 90
- Plant response rating, Goosegrass (goosegrass; [3]): 100
- Plant response rating, Goosegrass (goosegrass; [4]): 5
- Plant response rating, Goosegrass (goosegrass; [5]): 40
- Kochia plant response rating (kochia; Postemergence, 31 g ai/ha): 75
- Kochia plant response rating (kochia; Postemergence, 125 g ai/ha): 80
- Kochia plant response rating (kochia; Postemergence, 250 g ai/ha): 75
- Kochia plant response rating (kochia; postemergence, 62 g ai/ha): 80
- Barley, Spring plant response rating (barley, spring; Postemergence, 31 g ai/ha): 0
- Barley, Spring plant response rating (barley, spring; Postemergence, 125 g ai/ha): 10
- Barley, Spring plant response rating (barley, spring; Postemergence, 250 g ai/ha): 30
- Barley, Spring plant response rating (barley, spring; postemergence, 62 g ai/ha): 0
- Barley, Winter plant response rating (barley, winter; Postemergence, 31 g ai/ha): 5
- Barley, Winter plant response rating (barley, winter; Postemergence, 125 g ai/ha): 15
- Barley, Winter plant response rating (barley, winter; Postemergence, 250 g ai/ha): 25
- Barley, Winter plant response rating (barley, winter; postemergence, 62 g ai/ha): 10
- Plant response rating, Arrowleaf Sida (arrowleaf sida; [1]): 0
- Plant response rating, Arrowleaf Sida (arrowleaf sida; [2]): 20
- Plant response rating, Arrowleaf Sida (arrowleaf sida; [3]): 35
- Plant response rating, Arrowleaf Sida (arrowleaf sida; [4]): 0
- Plant response rating, Arrowleaf Sida (arrowleaf sida; [5]): 0

Structure (SMILES): CCCc1cc(C(=O)NCC(F)(F)F)nn1Cc1ccnc(C(F)(F)F)c1 [Compound 105]
- Plant response rating, Common Ragweed (common ragweed; [2]): 35
- Plant response rating, Common Ragweed (common ragweed; [3]): 100
- Plant response rating, Common Ragweed (common ragweed; [4]): 0
- Plant response rating, Common Ragweed (common ragweed; [5]): 0
- Blackgrass plant response rating (blackgrass; Postemergence, 31 g ai/ha): 10
- Blackgrass plant response rating (blackgrass; Postemergence, 125 g ai/ha): 65
- Blackgrass plant response rating (blackgrass; Postemergence, 250 g ai/ha): 70
- Blackgrass plant response rating (blackgrass; postemergence, 62 g ai/ha): 15
- Plant response rating, Field Bindweed (field bindweed; [1]): 75
- Plant response rating, Field Bindweed (field bindweed; [2]): 40
- Plant response rating, Field Bindweed (field bindweed; [3]): 100
- Plant response rating, Field Bindweed (field bindweed; [4]): 0
- Plant response rating, Field Bindweed (field bindweed; [5]): 10
- Plant response rating, Johnsongrass (johnsongrass; [1]): 75
- Plant response rating, Johnsongrass (johnsongrass; [2]): 98
- Plant response rating, Johnsongrass (johnsongrass; [3]): 98
- Plant response rating, Johnsongrass (johnsongrass; [4]): 0
- Plant response rating, Johnsongrass (johnsongrass; [5]): 25
- Plant response rating, Field Violet (field violet; 31 g ai/ha): 100
- Plant response rating, Field Violet (field violet; 62 g ai/ha): 100
- Plant response rating, Field Violet (field violet; 125 g ai/ha): 100
- Plant response rating, Field Violet (field violet; 250 g ai/ha): 100
- Chamomile plant response rating (chamomile; Postemergence, 31 g ai/ha): 25
- Chamomile plant response rating (chamomile; Postemergence, 125 g ai/ha): 65
- Chamomile plant response rating (chamomile; Postemergence, 250 g ai/ha): 80
- Chamomile plant response rating (chamomile; postemergence, 62 g ai/ha): 50
- Plant response rating, Large Crabgrass (large crabgrass; [1]): 98
- Plant response rating, Large Crabgrass (large crabgrass; [2]): 100
- Plant response rating, Large Crabgrass (large crabgrass; [3]): 100
- Plant response rating, Large Crabgrass (large crabgrass; [4]): 65
- Plant response rating, Large Crabgrass (large crabgrass; [5]): 70
- Canarygrass plant response rating (canarygrass; Postemergence, 31 g ai/ha): 10
- Canarygrass plant response rating (canarygrass; Postemergence, 125 g ai/ha): 25
- Canarygrass plant response rating (canarygrass; Postemergence, 250 g ai/ha): 40
- Canarygrass plant response rating (canarygrass; postemergence, 62 g ai/ha): 15
- Plant response rating, Speedwell (speedwell; 31 g ai/ha): 100
- Plant response rating, Speedwell (speedwell; 62 g ai/ha): 100
- Plant response rating, Speedwell (speedwell; 125 g ai/ha): 100
- Plant response rating, Speedwell (speedwell; 250 g ai/ha): 100
- Plant response rating, Goosegrass (goosegrass; [1]): 40
- Plant response rating, Goosegrass (goosegrass; [2]): 90
- Plant response rating, Goosegrass (goosegrass; [3]): 98
- Plant response rating, Goosegrass (goosegrass; [4]): 30
- Plant response rating, Goosegrass (goosegrass; [5]): 35
- Kochia plant response rating (kochia; Postemergence, 31 g ai/ha): 75
- Kochia plant response rating (kochia; Postemergence, 125 g ai/ha): 80
- Kochia plant response rating (kochia; Postemergence, 250 g ai/ha): 80
- Kochia plant response rating (kochia; postemergence, 62 g ai/ha): 75
- Barley, Spring plant response rating (barley, spring; Postemergence, 31 g ai/ha): 10
- Barley, Spring plant response rating (barley, spring; Postemergence, 125 g ai/ha): 30
- Barley, Spring plant response rating (barley, spring; Postemergence, 250 g ai/ha): 45
- Barley, Spring plant response rating (barley, spring; postemergence, 62 g ai/ha): 10
- Barley, Winter plant response rating (barley, winter; Postemergence, 31 g ai/ha): 10
- Barley, Winter plant response rating (barley, winter; Postemergence, 125 g ai/ha): 20
- Barley, Winter plant response rating (barley, winter; Postemergence, 250 g ai/ha): 30
- Barley, Winter plant response rating (barley, winter; postemergence, 62 g ai/ha): 10
- Plant response rating, Arrowleaf Sida (arrowleaf sida; [1]): 0
- Plant response rating, Arrowleaf Sida (arrowleaf sida; [2]): 0
- Plant response rating, Arrowleaf Sida (arrowleaf sida; [3]): 15
- Plant response rating, Arrowleaf Sida (arrowleaf sida; [4]): 0
- Plant response rating, Arrowleaf Sida (arrowleaf sida; [5]): 0
